Where two headings read alike, the source gives them in different places.
Assays:
Format in all cases: cell-based
DU-145 = experiment: Inhibition of cell growth by colorimetric SRB assay, DU-145; details: Homo sapiens, DU-145, 48 hours exposure; for CC50: cell killing, read-out: LC50 (the source's name); for IC (total growth inhibition): read-out: TGI
Excerpt: (§1) The finality of these assays is to interrupt the growth of a “in vitro” tumor cell culture by means a continued exhibition of the cells to the sample to be testing.
(§2) Inhibition of Cell Growth by Colorimetric Assay.
(§3) A colorimetric type of assay, using sulforhodamine B (SRB) reaction has been adapted for a quantitative measurement of cell growth and viability (following the technique described by P. A. Skehan, et al., J. Natl. CancerInst. 1990, 82, 1107-1112).
(§4) This form of assay employs 96 well cell culture microplates of 9 mm diameter (T. Mosmann et al., J. of Immuological Methods 1983, 65, 55-63; G. T. Faircloth et al., J. of Tissue and Culture Methods 1988, 11, 201-205). Most of the cell lines are obtained from American Type Culture Collection (ATCC) derived from different human cancer types.
(§5) Cells are maintained in RPMI 1640 10% FBS, supplemented with 0.1 g/L penicillin and 0.1 g/L streptomycin sulfate and then incubated at 37° C., 5% CO2 and 98% humidity. For the experiments, cells were harvested from subconfluent cultures using trypsin and resuspended in fresh medium before plating.
(§6) Cells are seeded in 96 well microtiter plates, at 5×10^3 cells per well in aliquots of 195 μL medium, and they are allowed to attach to the plate surface by growing in drug free medium for 18 hours. Afterward, samples are added in aliquots of 5 μL in a ranging from 10 to 10^−8 μg/mL, dissolved in DMSO/EtOH/PBS (0.5:0.5:99). After 48 hours exposure, the antitumor effect are measured by the SRB methodology: cells are fixed by adding 50 μL of cold 50% (wt/vol) trichloroacetic acid (TCA) and incubated for 60 minutes at 4° C. Plates are washed with deionizer water and dried. One hundred μl of SRB solution (0.4% wt/vol in 1% acetic acid) is added to each microliter well and incubated for 10 minutes at room temperature. Unbound SRB is removed by washing with 1% acetic acid. Plates are air dried and bound stain is solubilized with Tris buffer. Optical densities are read on a automated spectrophotometric plate reader at a single wavelength of 490 nm.
(§7) The values for mean +/−SD of data from triplicate wells are calculated. Some parameters for cellular responses can be calculated: GI=growth inhibition, TGI=total growth inhibition (cytostatic effect) and LC=cell killing (cytotoxic effect).

IGROV = experiment: Inhibition of cell growth by colorimetric SRB assay, IGROV; details: Homo sapiens, 48 hours exposure; for CC50: cell killing, read-out: LC50 (the source's name); for IC (total growth inhibition): read-out: TGI
Excerpt: as §1, §2, §3, §4, §5, §6, §7

IGROV-ET = experiment: Inhibition of cell growth by colorimetric SRB assay, IGROV-ET; details: Homo sapiens, IGROV-ET, 48 hours exposure; for CC50: cell killing, read-out: LC50 (the source's name); for IC (total growth inhibition): read-out: TGI
Excerpt: as §1, §2, §3, §4, §5, §6, §7

SK-BR-3 = experiment: Inhibition of cell growth by colorimetric SRB assay, SK-BR-3; details: SK-BR-3, 48 hours exposure; for GI50 / CC50: Homo sapiens; for CC50: cell killing, read-out: LC50 (the source's name); for TGI: total growth inhibition
Excerpt: as §1, §2, §3, §4, §5, §6, §7

SK-MEL-28 = experiment: Inhibition of cell growth by colorimetric SRB assay, MEL-28; details: Homo sapiens, SK-MEL-28, MEL-28, 48 hours exposure; for CC50: cell killing, read-out: LC50 (the source's name); for IC (total growth inhibition): read-out: TGI
Excerpt: as §1, §2, §3, §4, §5, §6, §7

A-549 = experiment: Inhibition of cell growth by colorimetric SRB assay, A-549; details: Homo sapiens, A549, A-549, 48 hours exposure; for CC50: cell killing, read-out: LC50 (the source's name); for IC (total growth inhibition): read-out: TGI
Excerpt: as §1, §2, §3, §4, §5, §6, §7

PANC-1 = experiment: Inhibition of cell growth by colorimetric SRB assay, PANC-1; details: Homo sapiens, PANC-1, 48 hours exposure; for CC50: cell killing, read-out: LC50 (the source's name); for IC (total growth inhibition): read-out: TGI
Excerpt: as §1, §2, §3, §4, §5, §6, §7

HT-29 = experiment: Inhibition of cell growth by colorimetric SRB assay, HT-29; details: Homo sapiens, HT-29, 48 hours exposure; for CC50: cell killing, read-out: LC50 (the source's name); for IC (total growth inhibition): read-out: TGI
Excerpt: as §1, §2, §3, §4, §5, §6, §7

LoVo = experiment: Inhibition of cell growth by colorimetric SRB assay, LOVO; details: Homo sapiens, LOVO, 48 hours exposure; for LC50: cell killing, read-out: LC50; for IC (total growth inhibition): read-out: TGI
Excerpt: as §1, §2, §3, §4, §5, §6, §7

LoVo-Dox = experiment: Inhibition of cell growth by colorimetric SRB assay, LOVO-DOX; details: Homo sapiens, LOVO-DOX, 48 hours exposure; for LC50 (concentration for 50% cell killing): read-out: LC50; for IC (total growth inhibition): read-out: TGI
Excerpt: as §1, §2, §3, §4, §5, §6, §7

HeLa = experiment: Inhibition of cell growth by colorimetric SRB assay, HELA; details: Homo sapiens, HELA, 48 hours exposure; for CC50: cell killing, read-out: LC50 (the source's name); for IC (total growth inhibition): read-out: TGI
Excerpt: as §1, §2, §3, §4, §5, §6, §7

HeLa-APL = experiment: Inhibition of cell growth by colorimetric SRB assay, HELA-APL; details: Homo sapiens; for CC50: cell killing, read-out: LC50 (the source's name); for IC (total growth inhibition): read-out: TGI
Excerpt: as §1, §2, §3, §4, §5, §6, §7

LNCaP = experiment: Inhibition of cell growth by colorimetric SRB assay, LN-caP; details: Homo sapiens, LN-caP, 48 hours exposure
Excerpt: as §1, §2, §3, §4, §5, §6, §7

K-562 = experiment: Inhibition of cell growth by colorimetric SRB assay, K-562; details: Homo sapiens, K562, K-562, 48 hours exposure
Excerpt: as §1, §2, §3, §4, §5, §6, §7

[1] = cell killing, read-out: LC50 (the source's name)
[2] = total growth inhibition, read-out: TGI

Structure (SMILES) | GI50 (DU-145) [µM] | CC50 (DU-145) [µM] | IC (total growth inhibition) (DU-145) [µM] | GI50 (IGROV-ET) [µM] | CC50 (IGROV-ET) [µM] | IC (total growth inhibition) (IGROV-ET) [µM] | GI50 (SK-MEL-28) [µM] | CC50 (SK-MEL-28) [µM] | IC (total growth inhibition) (SK-MEL-28) [µM] | GI50 (A-549) [µM] | CC50 (A-549) [µM] | IC (total growth inhibition) (A-549) [µM] | GI50 (PANC-1) [µM] | CC50 (PANC-1) [µM] | IC (total growth inhibition) (PANC-1) [µM] | GI50 (LoVo) [µM] | LC50 (LoVo) [µM] | IC (total growth inhibition) (LoVo) [µM] | GI50 (LoVo-Dox) [µM] | LC50 (concentration for 50% cell killing) (LoVo-Dox) [µM] | other results
C/C=C\[C@H](C)[C@H]1OC1(C)[C@@H](O)[C@@H](CO)C(=O)[C@@H](CO)[C@H](O)CC(=O)CC (stereo partly drawn) [3d + 4d] | 26.8 | 26.8 | 26.8 | 17.1 | 26.8 | 26.8 | 26.8 | 26.8 | 26.8 | 26.8 | 26.8 | 26.8 | 13.5 | 26.8 | 26.8 | 26.8 | 26.8 | 26.8 | 26.8 | 26.8 | GI50 (IGROV): 20.5 µM; CC50 (IGROV): 26.8 µM; IC (total growth inhibition) (IGROV): 26.8 µM; GI50 (SK-BR-3): 20.5 µM; CC50 (SK-BR-3): 26.8 µM; TGI (SK-BR-3): 2.68E−05 Molar; GI50 (HT-29): 26.8 µM; CC50 (HT-29): 26.8 µM; IC (total growth inhibition) (HT-29): 26.8 µM; IC (total growth inhibition) (LoVo-Dox): 26.8 µM; GI50 (HeLa): 26.8 µM; CC50 (HeLa): 26.8 µM; IC (total growth inhibition) (HeLa): 26.8 µM; CC50 (HeLa-APL; HELA-APL, 48 hours exposure): 26.8 µM; GI50 (HeLa-APL; HELA-APL, 48 hours exposure, read-out: GI50): 26.8 µM; IC (total growth inhibition) (HeLa-APL; HELA-APL, 48 hours exposure, total growth inhibition): 26.8 µM
C/C=C\[C@H](C)[C@H]1OC1(C)[C@@H](O[Si](C)(C)C(C)(C)C)[C@@H](CO)C(=O)[C@@H](CO)[C@H](O)CC(=O)CC (stereo partly drawn) [31b + 31d] | 20.5 | 20.5 | 20.5 | 20.5 | 20.5 | 20.5 | 20.5 | 20.5 | 20.5 | 20.5 | 20.5 | 20.5 | 12.6 | 20.5 | 20.5 | 20.5 | 20.5 | 20.5 | 20.5 | 20.5 | GI50 (IGROV): 16.5 µM; CC50 (IGROV): 20.5 µM; IC (total growth inhibition) (IGROV): 20.5 µM; GI50 (SK-BR-3): 20.2 µM; CC50 (SK-BR-3): 20.5 µM; TGI (SK-BR-3): 2.05E−05 Molar; GI50 (HT-29): 20.5 µM; CC50 (HT-29): 20.5 µM; IC (total growth inhibition) (HT-29): 20.5 µM; IC (total growth inhibition) (LoVo-Dox): 20.5 µM; GI50 (HeLa): 20.5 µM; CC50 (HeLa): 20.5 µM; IC (total growth inhibition) (HeLa): 20.5 µM; CC50 (HeLa-APL; HELA-APL, 48 hours exposure): 20.5 µM
C/C=C\[C@H](C)[C@H]1OC1(C)[C@@H](O[Si](C)(C)C(C)(C)C)[C@@H](CO[Si](C)(C)C(C)(C)C)C(=O)[C@@H](CO[Si](C)(C)C(C)(C)C)[C@H](CC(=O)CC)O[Si](C)(C)C(C)(C)C (stereo partly drawn) [Compound 30a] | 12.1 | 12.1 | 12.1 | 8.27 | 12.1 | 12.1 | 12.1 | 12.1 | 12.1 | 12.1 | 12.1 | 12.1 | 12.1 | 12.1 | 12.1 | 6.37 | 12.1 | 12.1 | 12.1 | 12.1 | GI50 (SK-BR-3): 8.56 µM; CC50 (SK-BR-3): 12.1 µM; TGI (SK-BR-3): 1.21E−05 Molar; IC (total growth inhibition) (LoVo-Dox): 12.1 µM; GI50 (HeLa): 12.1 µM; CC50 (HeLa): 12.1 µM; IC (total growth inhibition) (HeLa): 12.1 µM; CC50 (HeLa-APL; HELA-APL, 48 hours exposure): 12.1 µM
C/C=C\[C@H](C)[C@H]1OC1(C)[C@@H](O[Si](C)(C)C(C)(C)C)[C@@H](CO[Si](C)(C)C(C)(C)C)C(=O)[C@@H](CO[Si](C)(C)C(C)(C)C)[C@@H](CC(=O)CC)O[Si](C)(C)C(C)(C)C (stereo partly drawn) [Compound 30b] | 12.1 | 12.1 | 12.1 | 8.27 | 12.1 | 12.1 | 12.1 | 12.1 | 12.1 | 12.1 | 12.1 | 12.1 | 12.1 | 12.1 | 12.1 | 6.88 | 12.1 | 12.1 | 12.1 | 12.1 | GI50 (SK-BR-3): 12.1 µM; CC50 (SK-BR-3): 12.1 µM; TGI (SK-BR-3): 1.21E−05 Molar; IC (total growth inhibition) (LoVo-Dox): 12.1 µM; GI50 (HeLa): 12.1 µM; CC50 (HeLa): 12.1 µM; IC (total growth inhibition) (HeLa): 12.1 µM; CC50 (HeLa-APL; HELA-APL, 48 hours exposure): 12.1 µM
C/C=C\[C@H](C)[C@H]1OC1(C)[C@@H](O[Si](C)(C)C(C)(C)C)[C@@H](COC(C)=O)C(=O)[C@H](CO)[C@H](O)CC(=O)CC (stereo partly drawn) [Compound 43] | 4.99 | 18.7 | 9.66 | 4.52 | 17.8 | 8.96 | 3.9 | 13.4 | 7.24 | 4.44 | 16.2 | 8.49 | 3.73 | 13.2 | 7.02 | 4.03 | 18.9 | 9.06 | 3.31 | 15.7 | GI50 (LNCaP): 3.78 µM; CC50 (LNCaP; [1]): 15.4 µM; IC (total growth inhibition) (LNCaP; [2]): 7.62 µM; GI50 (IGROV): 4.94 µM; CC50 (IGROV): 18.9 µM; IC (total growth inhibition) (IGROV): 9.99 µM; GI50 (K-562): 3.59 µM; CC50 (K-562; [1]): 16.5 µM; IC (total growth inhibition) (K-562; [2]): 7.72 µM; GI50 (HT-29): 4.24 µM; CC50 (HT-29): 16.2 µM; IC (total growth inhibition) (HT-29): 8.28 µM; IC (total growth inhibition) (LoVo-Dox): 7.21 µM; GI50 (HeLa): 4.37 µM; CC50 (HeLa): 16.4 µM; IC (total growth inhibition) (HeLa): 8.47 µM; GI50 (HeLa-APL; 48 h): 4.27 µM; IC (total growth inhibition) (HeLa-APL; 48 h): 9.34 µM; CC50 (HeLa-APL; HELA-APL, 48 hours exposure): 18.9 µM
